What was measured:
Assay in all cases: NCI 60 cell panel SRB screen
Assay type in all cases: cell-based
MOLT-4 = settings: Homo sapiens
HOP-92 = settings: Homo sapiens
NCI-H322M = settings: Homo sapiens
NCI-H522 = settings: Homo sapiens
COLO 205 = settings: Homo sapiens
HCC-2998 = settings: Homo sapiens
HCT-15 = settings: Homo sapiens
HT29 = settings: Homo sapiens, HT-29
KM12 = settings: Homo sapiens
LOX IMVI = settings: Homo sapiens
MDA-MB-435 = settings: Homo sapiens
OVCAR-4 = settings: Homo sapiens
UO-31 = settings: Homo sapiens
MCF7 = settings: Homo sapiens
MDA-MB 231/ATCC = settings: Homo sapiens
HS 578T = settings: Homo sapiens
BT-549 = settings: Homo sapiens
MDA-MB-468 = settings: Homo sapiens
Experimental: The human tumor cell lines of the cancer-screening panel were grown in RPMI 1640 medium containing 5% fetal bovine serum and […] L-glutamine. For a typical screening experiment, cells are inoculated into 96 well microtiter plates in 100 ml at plating densities ranging from 5000 to 40,000 cells/well depending on the doubling time of individual cell lines. After cell inoculation, the microtiter plates are incubated at 37 °C, 5% CO2, 95% air and 100%
relative humidity for 24 h prior to addition of experimental drugs. After 24 h, two plates of each cell line are fixed in situ with TCA, to represent a measurement of the cell population for each cell line at the time of drug addition (Tz). Experimental drugs are dissolved in dimethyl sulfoxide at 400-fold the desired final maximum test concentration and stored frozen prior to use. At the time of drug addition, an aliquot of frozen concentrate is thawed and diluted to twice the desired final maximum test concentration with complete medium containing […] Gentamicin. Additional four, 10-fold or ½log serial dilutions are made to provide a total of five drug concentrations plus control. Aliquots of […] of these different drug dilutions are added to the appropriate microtiter wells already containing 100 ml of medium, resulting in the required final drug concentrations. Following drug addition, the plates are incubated for an additional 48 h at 37 °C, 5% CO2, 95% air, and 100% relative humidity. For adherent cells, the assay is terminated by the addition of cold TCA. Cells are fixed in situ by the gentle addition of […] of cold 50% (w/v) TCA (final concentration,10% TCA) and incubated for 60 min at 4 °C. The supernatant is discarded, and the plates are washed five times with tap water and air dried. Sulforhodamine B (SRB) solution (100 ml) at 0.4% (w/v) in 1% acetic acid is added to each well, and plates are incubated for 10 min at room temperature. After staining, unbound dye is removed by washing five times with 1% acetic acid and the plates are air dried. Bound stain is subsequently dissolved with 10 μM trizma base, and the absorbance is read on an automated plate reader at a wavelength of 515 nm. For suspension cells, the methodology is the same except that the assay is terminated by fixing settled cells at the bottom of the wells by gently adding […] of 80% TCA (final concentration, 16% TCA).
Using the seven absorbance measurements [time zero, (Tz), control growth, (C), and test growth in the presence of drug at the five concentration levels (Ti)], the percentage growth is calculated at each of the drug concentrations levels. Percentage growth inhibition is calculated as: [(Ti -Tz)/(C - Tz)] x 100 for concentrations for which Ti>/ ¼ Tz and [(Ti -Tz) / Tz] x100 for concentrations for which Ti <Tz.
Three dose response parameters are calculated for each experimental agent. Growth inhibition of 50% (GI50) is calculated from [(Ti -Tz)/(C - Tz)] x 100 =50, which is the drug concentration resulting in a 50% reduction in the net protein increase (as measured by SRB staining) in control cells during the drug incubation. The drug concentration resulting in total growth inhibition (TGI) is calculated from Ti ¼ Tz. The LC50 (concentration of drug resulting in a 50% reduction in the measured protein at the end of the drug treatment as compared to that at the beginning) indicating a net loss of cells following treatment is calculated from [(Ti - Tz) / Tz] x100 = -50. Values are calculated for each of these three parameters if the level of activity is reached; however, if the effect is not reached or is exceeded, the value for that parameter is expressed as greater or less than the maximum or minimum concentration tested.

[1] = 5 log dose, 48 h, read-out: LC50 (the source's name)

O=C(Nc1ccc(Cl)cc1)Nc1ccc(Oc2nncc3ccccc23)cc1 [Compound 7b, 1–(4-Chlorophenyl)-3–(4-(phthalazin-1-yloxy)phenyl)urea]
GI50 (MOLT-4; MOLT-4, 5 log dose): 0.37 µM | IC (TGI) (MOLT-4; MOLT-4, 5 log dose): > 100 µM | CC50 (MOLT-4; MOLT-4, 5 log dose, 48 h, read-out: LC50 (the source's name)): > 100 µM | activity at 10 µM (MOLT-4; MOLT-4, single dose 10 μM, read-out: percent cell growth promotion): 3.99% | GI50 (HOP-92; HOP-92, 5 log dose): 1.64 µM | IC (TGI) (HOP-92; HOP-92, 5 log dose): 4.37 µM | CC50 (HOP-92; HOP-92, 5 log dose, 48 h, read-out: LC50 (the source's name)): 17.1 µM | activity at 10 µM (HOP-92; HOP-92, single dose 10 μM, read-out: percent cell growth promotion): 12.9% | GI50 (NCI-H322M; 5 log dose): 2.6 µM | IC (TGI) (NCI-H322M; 5 log dose): 9.51 µM | CC50 (NCI-H322M; [1]): 34.9 µM | activity at 10 µM (NCI-H322M; single dose 10 μM, read-out: percent cell growth promotion): 60.9% | GI50 (NCI-H522; NCI-H522, 5 log dose): 0.19 µM | IC (TGI) (NCI-H522; NCI-H522, 5 log dose): 0.41 µM | CC50 (NCI-H522; NCI-H522, 5 log dose, 48 h, read-out: LC50 (the source's name)): 0.91 µM | activity at 10 µM (NCI-H522; NCI-H522, single dose 10 μM, read-out: percent cell growth promotion): -46.4% | GI50 (COLO 205; COLO 205, 5 log dose): 1.18 µM | IC (TGI) (COLO 205; COLO 205, 5 log dose): 2.92 µM | CC50 (COLO 205; COLO 205, 5 log dose, 48 h, read-out: LC50 (the source's name)): 7.21 µM | activity at 10 µM (COLO 205; COLO 205, single dose 10 μM, read-out: percent cell growth promotion): 11.9% | GI50 (HCC-2998; HCC-2998, 5 log dose): 1.84 µM | IC (TGI) (HCC-2998; HCC-2998, 5 log dose): 3.48 µM | LC50 (50% lethal concentration) (HCC-2998; HCC-2998, 5 log dose, 48 h): 6.57 µM | activity at 10 µM (HCC-2998; HCC-2998, single dose 10 μM, read-out: percent cell growth promotion): -42.2% | GI50 (HCT-15; HCT-15, 5 log dose): 0.96 µM | IC (TGI) (HCT-15; HCT-15, 5 log dose): 3.08 µM | CC50 (HCT-15; HCT-15, 5 log dose, 48 h, read-out: LC50 (the source's name)): 9.67 µM | activity at 10 µM (HCT-15; HCT-15, single dose 10 μM, read-out: percent cell growth promotion): 2.76% | GI50 (HT29; HT29, 5 log dose): 0.46 µM | IC (TGI) (HT29; HT29, 5 log dose): 2.39 µM | CC50 (HT29; HT29, 5 log dose, 48 h, read-out: LC50 (the source's name)): > 100 µM | activity at 10 µM (HT29; HT29, single dose 10 μM, read-out: percent cell growth promotion): 0.52% | GI50 (KM12; KM12, 5 log dose): 0.88 µM | IC (TGI) (KM12; KM12, 5 log dose): 2.65 µM | CC50 (KM12; KM12, 5 log dose, 48 h, read-out: LC50 (the source's name)): 7.38 µM | activity at 10 µM (KM12; KM12, single dose 10 μM, read-out: percent cell growth promotion): -32.3% | GI50 (LOX IMVI): 0.16 µM | CC50 (LOX IMVI; [1]): 1.63 µM | IC (TGI) (LOX IMVI; read-out: TGI): 0.45 µM | activity at 10 µM (LOX IMVI; read-out: percent cell growth promotion): -77.3% | GI50 (MDA-MB-435; MDA-MB-435): 0.29 µM | IC (TGI) (MDA-MB-435; MDA-MB-435, read-out: TGI): 1.07 µM | activity at 10 µM (MDA-MB-435; MDA-MB-435, read-out: percent cell growth promotion): -33.3% | CC50 (MDA-MB-435; MDA-MB-435, 5 log dose, 48 h, read-out: LC50 (the source's name)): 5.65 µM | GI50 (OVCAR-4; OVCAR-4, 5 log dose): 0.75 µM | IC (TGI) (OVCAR-4; OVCAR-4, 5 log dose): 3.49 µM | CC50 (OVCAR-4; OVCAR-4, 5 log dose, 48 h, read-out: LC50 (the source's name)): 17 µM | activity at 10 µM (OVCAR-4; OVCAR-4, single dose 10 μM, read-out: percent cell growth promotion): -20.8% | GI50 (UO-31; UO-31, 5 log dose): 1.29 µM | IC (TGI) (UO-31; UO-31, 5 log dose): 2.67 µM | activity at 10 µM (UO-31; UO-31, single dose 10 μM, read-out: percent cell growth promotion): -51.6% | IC (TGI) (MCF7; MCF7, read-out: TGI): 1.89 µM | activity at 10 µM (MCF7; MCF7, read-out: percent cell growth promotion): 14.3% | GI50 (MCF7; MCF7, 5 log dose, read-out: GI50): 0.32 µM | GI50 (MDA-MB 231/ATCC; MDA-MB-231): 0.39 µM | IC (TGI) (MDA-MB 231/ATCC; MDA-MB-231, read-out: TGI): 3.68 µM | activity at 10 µM (MDA-MB 231/ATCC; MDA-MB-231, read-out: percent cell growth promotion): -25.2% | CC50 (MDA-MB 231/ATCC; MDA-MB-231, MDA-MDA 231/ATCC, 5 log dose, 48 h, read-out: LC50 (the source's name)): 42.4 µM | GI50 (HS 578T; Hs-578T): 0.69 µM | IC (TGI) (HS 578T; Hs-578T, read-out: TGI): 47 µM | activity at 10 µM (HS 578T; Hs-578T, read-out: percent cell growth promotion): 37.5% | CC50 (HS 578T; HS 578T, 5 log dose, 48 h, read-out: LC50 (the source's name)): > 100 µM | GI50 (BT-549; BT-549): 2.08 µM | IC (TGI) (BT-549; BT-549, read-out: TGI): 7.43 µM | activity at 10 µM (BT-549; BT-549, read-out: percent cell growth promotion): -10.3% | CC50 (BT-549; BT-549, 5 log dose, 48 h, read-out: LC50 (the source's name)): 58.1 µM | activity at 10 µM (MDA-MB-468; MDA-MB-468, MDA-MBA-468, single dose 10 μM, read-out: percent cell growth promotion): -76.2% | GI50 (MDA-MB-468; MDA-MB-468, 5 log dose): 0.75 µM | IC (TGI) (MDA-MB-468; MDA-MB-468, 5 log dose): 2.52 µM | CC50 (MDA-MB-468; MDA-MB-468, 5 log dose, 48 h, read-out: LC50 (the source's name)): 7.18 µM
